# Test results as given in paper PMC3728333, “Development of an Epidermal Growth Factor Derivative with EGFR Blocking Activity” (PLoS ONE, 2013).
# Experiments:
# EGFR [1] = settings: ref [39], [40]; cited from earlier work
# Description: It is known that activated EGFR traffics from the plasma membrane to the cytoplasm through endocytic vesicles. Then, internalized EGFR can be eventually degraded in lysosomes, or recycled to the plasma membrane. Moreover, several reports have identified additional intracellular destinations for the internalized receptor, including ...
# human cancer cell lines = settings: several human cancer cell lines; ref [11], [12]; cited from earlier work
# Description: (§1) Our group has previously described that the Potato Carboxypeptidase Inhibitor (PCI) is an antagonist of human EGF. PCI is a 39-residue protein folded into a 27-residue globular core stabilized by three disulfide bonds that adopts the same conformation as EGF, the T-Knot scaffold. This similar structure probably accounts for the antagonistic activity.
# EGFR [2] = settings: ref [11], [12], cited from earlier work
# Description: as §1
# EGFR [3] = settings: ref [30]; cited from earlier work
# Description: The binding of EGF through the three interaction sites of EGFR shifts the equilibrium between the two distinct EGFR conformations to the untethered one, enabling the dimerization arm in domain II to interact with an identical dimerization arm of another receptor to form the dimer, [14].
# Caco-2 cells = assay: Cell proliferation (MTT), Caco-2; assay type: cell-based, human; settings: Caco-2, any concentration tested (10, 20 and 150 nM), 96 h (4 days), medium without FBS, vs untreated
# Protocol: (§2) The optimal cell seeding concentration was previously established for both cell types, as described in the supporting information (Fig S1), in order to maintain the cells in an exponential growth phase along the experiment. The cells were allowed to attach and grow for 72 h in culture medium, then the cells were washed and medium without FBS was added to the cells for 24 h. […] The treatments were removed, and the cells were washed with PBS and incubated for 3 h with 100 μl of fresh culture medium together with 10 μl of MTT (3-(4,5-dimethylthiazol-2-yl)-2,5-diphenyltetrazolium bromide) (Sigma-Aldrich, St. Louis, MO, USA). Medium was discarded and dimethyl sulfoxide (DMSO) (Sigma-Aldrich, St. Louis, MO, USA) was added to each well to dissolve the purple formazan crystals. Plates were agitated at room temperature for 10 min and the absorbance of each well was determined with an absorbance microplate reader (ELx800, BioTek, Winooski, VT, USA) at a wavelength of 570 nm. Three replicates were used for each treatment. The cell viability was determined as a percentage of the untreated control cells, by dividing the mean absorbance of each treatment by the mean absorbance of the untreated cells.
# MCF-7 cells = assay: Cell proliferation (MTT), MCF-7; assay type: cell-based, human; settings: MCF-7, 20 and 150 nM, 72 h (3 days), medium without FBS, vs untreated
# Protocol: as §2
compound,measurement,setting,value
TGF-α: EGFR native ligand,stability of binding to EGFR at pH of endosomes,EGFR [1],rapidly dissociates from the receptor when exposed to the low pH of endosomes
"Potato Carboxypeptidase Inhibitor (QQHADPICNKPCKTHDDCSGAWFCQACWNSARTCGPYVG; UniProt P01075 1-39, looked up) [PCI, 39-residue protein folded into a 27-residue globular core stabilized by three disulfide bonds]",anti-proliferative activity in vitro,human cancer cell lines,showed anti-proliferative activity in vitro in several human cancer cell lines
same,affinity for EGFR (in words),EGFR [2]; earlier work,very low
same,EGFR activation,EGFR [2],inhibited EGFR activation
same,EGFR down regulation,EGFR [2],induced the down regulation of the receptor
same,competition with EGF for binding to EGFR,EGFR [2],competed with EGF for binding to EGFR
same,effective concentration compared to EGFt/hEGF (in words),EGFR [2],one order of magnitude higher (μM)
Cc1ccc(C(=O)Nc2ccc(S(=O)(=O)O)c3cc(S(=O)(=O)O)cc(S(=O)(=O)O)c23)cc1NC(=O)c1cccc(NC(=O)Nc2cccc(C(=O)Nc3cc(C(=O)Nc4ccc(S(=O)(=O)O)c5cc(S(=O)(=O)O)cc(S(=O)(=O)O)c45)ccc3C)c2)c1 [suramin],interference with hEGF-EGFR interaction,EGFR [3],prevents hEGF from interacting with EGFR at site 3
human Epidermal Growth Factor [hEGF],cell proliferation (in words),Caco-2 cells,moderated but significant proliferative effect
same,cell proliferation (in words),MCF-7 cells,proliferative effect
same,stability of binding to EGFR at pH of endosomes,EGFR [1],relatively more stable at the pH of endosomes
